The source made the active and inactive calls.
Assays:
Streptokinase A = biological target: T1, Streptokinase A (Streptococcus pyogenes serotype M1, UniProt P10520); test: S. pyogenes streptokinase expression inhibitors, potency, dose response, plasminogen activation absorbance, OD405 (AID 1914); format: functional, Streptococcus pyogenes M1 GAS;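 note: secreted streptokinase activity via plasminogen activation per viability signal from cell pellet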
T1 sequence (P10520 whole entry): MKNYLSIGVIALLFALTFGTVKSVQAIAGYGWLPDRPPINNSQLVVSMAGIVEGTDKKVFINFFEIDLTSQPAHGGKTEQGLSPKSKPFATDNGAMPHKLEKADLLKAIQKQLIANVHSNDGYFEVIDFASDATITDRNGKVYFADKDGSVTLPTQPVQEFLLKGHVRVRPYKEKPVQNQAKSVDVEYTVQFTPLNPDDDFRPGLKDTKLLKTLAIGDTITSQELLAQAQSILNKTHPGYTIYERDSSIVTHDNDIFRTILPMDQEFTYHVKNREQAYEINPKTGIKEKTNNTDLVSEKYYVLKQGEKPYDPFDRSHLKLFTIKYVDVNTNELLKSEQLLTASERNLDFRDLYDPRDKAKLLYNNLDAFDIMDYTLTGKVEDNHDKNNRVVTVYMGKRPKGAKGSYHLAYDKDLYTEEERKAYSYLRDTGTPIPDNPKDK

[1] = tested on: Streptococcus sp. 'group A'; test: growth inhibition of control SK(-) GAS strain, dose response, counter-screen for streptokinase expression inhibitor project, luminescence, kanamycin, BacTiterGlo, confirmation (AID 1900); format: functional, organism-based
Streptococcus = test: Group A Streptococcus viability loss, dose response, counter-screen for streptokinase expression inhibitor project, luminescence, BacTiterGlo (AID 1915); format: functional, organism-based;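 note: potency for reduction of bacterial viability or growth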
[2] = biological target: Eukaryotic translation initiation factor 4E (Mus musculus, UniProt P63073); test: eIF4E–eIF4G protein interaction inhibitors, dose response, biochemical, TR-FRET (AID 855); format: functional;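 note: potency for disrupting eIF4E binding to eIF4GI seen as loss of FRET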
Chain of Eukaryotic translation initiation factor 4E (P63073 whole entry): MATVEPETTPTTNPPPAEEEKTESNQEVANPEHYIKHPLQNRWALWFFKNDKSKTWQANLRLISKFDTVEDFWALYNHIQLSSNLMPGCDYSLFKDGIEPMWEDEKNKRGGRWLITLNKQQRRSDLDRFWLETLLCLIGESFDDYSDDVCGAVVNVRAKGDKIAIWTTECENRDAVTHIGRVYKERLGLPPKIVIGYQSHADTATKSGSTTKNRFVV

[3] = biological target: DNA damage-inducible transcript 3 protein (Mus musculus, UniProt P35639); format: functional, Cricetulus griseus
Chain of DNA damage-inducible transcript 3 protein (P35639 whole entry): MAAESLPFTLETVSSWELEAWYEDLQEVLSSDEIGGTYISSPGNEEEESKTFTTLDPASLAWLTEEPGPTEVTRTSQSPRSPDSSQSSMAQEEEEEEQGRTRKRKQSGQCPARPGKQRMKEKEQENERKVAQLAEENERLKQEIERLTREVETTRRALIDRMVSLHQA

X-box-binding protein 1 = X-box-binding protein 1 (Homo sapiens, UniProt P17861); format: functional, Cricetulus griseus;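 note: confirmatory dose-response counter-screen serving a CHOP assay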
Chain of X-box-binding protein 1 (P17861 whole entry): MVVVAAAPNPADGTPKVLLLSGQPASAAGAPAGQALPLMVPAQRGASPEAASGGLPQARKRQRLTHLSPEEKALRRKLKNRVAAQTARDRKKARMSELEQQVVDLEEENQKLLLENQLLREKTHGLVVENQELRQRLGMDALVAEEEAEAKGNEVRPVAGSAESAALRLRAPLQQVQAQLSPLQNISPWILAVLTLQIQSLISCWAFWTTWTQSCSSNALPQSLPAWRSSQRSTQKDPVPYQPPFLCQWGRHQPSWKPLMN

[4] = biological target: Voltage-dependent T-type calcium channel subunit alpha-1H (Homo sapiens, UniProt O95180); format: functional;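 note: channel activity triggered by adding a high calcium stimulation buffer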
[5] = biological target: T2, Long-chain-fatty-acid--AMP ligase FadD28 (Mycobacterium tuberculosis, UniProt P9WQ59); test: Fluorescence polarization aasay to screen for inhibitors that compete for the binding of FadD28 to a bisubstrate Measured in Biochemical System Using Plate Reader - 2147-01_Inhibitor_Dose_CherryPick_Activity.; format: functional, Mycobacterium tuberculosis H37Rv
T2 sequence (P9WQ59 whole entry): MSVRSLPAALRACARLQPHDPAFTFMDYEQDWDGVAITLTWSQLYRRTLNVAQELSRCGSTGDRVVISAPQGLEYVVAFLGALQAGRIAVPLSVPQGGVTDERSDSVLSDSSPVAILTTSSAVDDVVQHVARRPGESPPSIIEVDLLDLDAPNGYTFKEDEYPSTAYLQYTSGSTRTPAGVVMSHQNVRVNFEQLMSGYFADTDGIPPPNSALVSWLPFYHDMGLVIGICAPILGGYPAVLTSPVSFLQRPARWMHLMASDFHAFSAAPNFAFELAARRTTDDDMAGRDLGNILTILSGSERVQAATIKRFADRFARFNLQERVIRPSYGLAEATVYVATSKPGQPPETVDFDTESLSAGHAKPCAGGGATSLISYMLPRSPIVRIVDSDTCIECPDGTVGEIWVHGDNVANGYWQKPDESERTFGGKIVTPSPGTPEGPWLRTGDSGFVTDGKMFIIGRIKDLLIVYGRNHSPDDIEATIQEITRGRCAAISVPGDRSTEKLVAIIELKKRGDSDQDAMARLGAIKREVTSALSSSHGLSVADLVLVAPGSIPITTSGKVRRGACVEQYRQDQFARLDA

[6] = biological target: T3, Alkaline phosphatase, tissue-nonspecific isozyme (Homo sapiens, UniProt P05186); test: human TNAP enzyme inhibitors, SAR follow-up, biochemical, luminescent, dose response (AID 1056)
T3 sequence (P05186 whole entry): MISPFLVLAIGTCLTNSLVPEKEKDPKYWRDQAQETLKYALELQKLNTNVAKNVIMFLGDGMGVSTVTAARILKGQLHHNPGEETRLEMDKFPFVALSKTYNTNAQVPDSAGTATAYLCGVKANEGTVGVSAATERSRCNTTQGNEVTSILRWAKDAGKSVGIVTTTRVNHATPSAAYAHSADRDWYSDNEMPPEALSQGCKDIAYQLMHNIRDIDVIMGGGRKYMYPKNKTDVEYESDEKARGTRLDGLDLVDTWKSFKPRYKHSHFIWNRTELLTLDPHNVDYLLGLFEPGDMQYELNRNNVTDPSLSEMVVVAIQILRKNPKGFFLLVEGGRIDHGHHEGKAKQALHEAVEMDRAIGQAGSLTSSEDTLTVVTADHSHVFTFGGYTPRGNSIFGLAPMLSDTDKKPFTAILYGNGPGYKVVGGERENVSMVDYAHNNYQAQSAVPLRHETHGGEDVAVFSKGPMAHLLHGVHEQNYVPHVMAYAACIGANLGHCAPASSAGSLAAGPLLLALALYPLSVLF

[7] = biological target: Alkaline phosphatase, placental type (Homo sapiens, UniProt P05187); test: PLAP enzyme inhibitors, confirmation, biochemical, luminescence (AID 1512); format: functional
Chain of Alkaline phosphatase, placental type (P05187 whole entry): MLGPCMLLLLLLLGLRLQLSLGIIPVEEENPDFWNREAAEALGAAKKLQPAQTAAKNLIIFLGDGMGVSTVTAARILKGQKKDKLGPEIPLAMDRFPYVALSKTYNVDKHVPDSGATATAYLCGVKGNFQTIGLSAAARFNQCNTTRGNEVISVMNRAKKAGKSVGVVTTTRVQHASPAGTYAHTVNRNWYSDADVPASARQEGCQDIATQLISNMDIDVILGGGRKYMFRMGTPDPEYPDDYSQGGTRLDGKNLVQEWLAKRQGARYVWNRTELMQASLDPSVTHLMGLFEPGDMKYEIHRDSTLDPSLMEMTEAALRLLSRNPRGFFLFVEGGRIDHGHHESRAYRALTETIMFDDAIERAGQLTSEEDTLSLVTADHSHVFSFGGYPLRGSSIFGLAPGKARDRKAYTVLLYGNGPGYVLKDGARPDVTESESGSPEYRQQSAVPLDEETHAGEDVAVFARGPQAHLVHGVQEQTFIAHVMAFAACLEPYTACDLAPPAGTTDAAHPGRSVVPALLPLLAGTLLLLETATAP

[8] = biological target: Glyceraldehyde-3-phosphate dehydrogenase (Homo sapiens, UniProt P04406)
Chain of Glyceraldehyde-3-phosphate dehydrogenase (P04406 whole entry): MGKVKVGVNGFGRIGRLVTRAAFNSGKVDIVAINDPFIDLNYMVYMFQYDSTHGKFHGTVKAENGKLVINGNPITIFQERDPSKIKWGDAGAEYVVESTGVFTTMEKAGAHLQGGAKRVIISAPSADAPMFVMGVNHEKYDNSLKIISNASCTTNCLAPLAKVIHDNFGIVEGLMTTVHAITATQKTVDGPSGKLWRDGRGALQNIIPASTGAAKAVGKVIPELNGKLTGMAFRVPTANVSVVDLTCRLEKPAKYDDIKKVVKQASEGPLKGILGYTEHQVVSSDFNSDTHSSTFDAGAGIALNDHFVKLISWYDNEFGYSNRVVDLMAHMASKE

[9] = biological target: G2/mitotic-specific cyclin-B1 (Homo sapiens, UniProt P14635); test: G2/M cell cycle arrest in HeLa, late-stage follow-up, mechanism study for Wee1 degradation inhibitor project, FACS, panel member Cyclin B Degradation (AID 2088)
Chain of G2/mitotic-specific cyclin-B1 (P14635 whole entry): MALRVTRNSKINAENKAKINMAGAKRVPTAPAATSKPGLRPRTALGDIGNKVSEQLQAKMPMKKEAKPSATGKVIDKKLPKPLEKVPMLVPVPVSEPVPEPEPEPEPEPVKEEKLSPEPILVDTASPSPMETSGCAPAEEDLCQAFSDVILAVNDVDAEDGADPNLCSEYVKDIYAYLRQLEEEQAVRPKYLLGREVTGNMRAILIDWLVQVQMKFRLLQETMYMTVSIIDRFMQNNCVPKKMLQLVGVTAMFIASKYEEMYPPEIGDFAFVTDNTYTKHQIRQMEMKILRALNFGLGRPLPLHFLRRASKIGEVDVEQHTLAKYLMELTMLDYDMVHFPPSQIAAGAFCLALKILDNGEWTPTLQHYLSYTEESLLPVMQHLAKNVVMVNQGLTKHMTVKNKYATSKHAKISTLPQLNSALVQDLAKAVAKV

Wee1-like protein kinase = Wee1-like protein kinase (Homo sapiens, UniProt P30291); test: G2/M cell cycle arrest in HeLa, late-stage follow-up, mechanism study for Wee1 degradation inhibitor project, FACS, panel member Wee1 Degradation (AID 2088)
Chain of Wee1-like protein kinase (P30291 whole entry): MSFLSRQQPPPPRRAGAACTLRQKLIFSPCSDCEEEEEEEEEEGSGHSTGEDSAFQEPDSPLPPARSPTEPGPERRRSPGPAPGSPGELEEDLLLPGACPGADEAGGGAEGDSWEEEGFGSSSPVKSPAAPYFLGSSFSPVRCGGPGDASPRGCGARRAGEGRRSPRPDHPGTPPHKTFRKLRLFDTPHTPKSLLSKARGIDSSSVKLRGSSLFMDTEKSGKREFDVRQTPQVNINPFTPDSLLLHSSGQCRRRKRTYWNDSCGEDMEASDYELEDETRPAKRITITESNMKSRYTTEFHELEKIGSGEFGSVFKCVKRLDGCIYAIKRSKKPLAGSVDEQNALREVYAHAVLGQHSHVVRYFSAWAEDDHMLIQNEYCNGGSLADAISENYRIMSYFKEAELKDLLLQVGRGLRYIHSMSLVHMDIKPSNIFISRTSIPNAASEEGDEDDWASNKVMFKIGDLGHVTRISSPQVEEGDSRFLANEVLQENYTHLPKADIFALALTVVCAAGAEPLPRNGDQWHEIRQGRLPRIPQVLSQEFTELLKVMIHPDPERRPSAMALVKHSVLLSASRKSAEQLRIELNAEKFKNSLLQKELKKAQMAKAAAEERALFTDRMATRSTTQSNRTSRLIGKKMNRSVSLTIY

Protein skinhead-1 = biological target: T4, Protein skinhead-1 (Caenorhabditis elegans, UniProt P34707); format: functional
T4 sequence (P34707 whole entry): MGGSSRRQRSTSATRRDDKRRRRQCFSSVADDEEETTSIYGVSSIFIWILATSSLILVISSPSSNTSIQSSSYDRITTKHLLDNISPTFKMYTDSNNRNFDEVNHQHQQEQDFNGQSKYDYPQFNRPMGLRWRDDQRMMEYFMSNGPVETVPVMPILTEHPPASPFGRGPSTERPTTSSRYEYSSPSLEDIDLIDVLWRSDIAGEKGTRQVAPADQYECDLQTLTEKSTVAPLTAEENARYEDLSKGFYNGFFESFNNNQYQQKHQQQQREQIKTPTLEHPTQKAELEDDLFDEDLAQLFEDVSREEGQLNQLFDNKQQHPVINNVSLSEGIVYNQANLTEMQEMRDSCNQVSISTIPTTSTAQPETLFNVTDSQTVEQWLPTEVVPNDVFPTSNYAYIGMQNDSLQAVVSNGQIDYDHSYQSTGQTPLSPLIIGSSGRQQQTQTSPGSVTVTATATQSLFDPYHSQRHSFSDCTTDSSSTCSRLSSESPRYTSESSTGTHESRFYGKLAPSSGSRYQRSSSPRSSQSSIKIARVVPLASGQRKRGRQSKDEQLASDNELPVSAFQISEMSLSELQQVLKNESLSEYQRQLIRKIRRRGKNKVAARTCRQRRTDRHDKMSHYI

HEK293 [10] = test: cells; format: functional, cell-based; conditions: Homo sapiens
HEK293 [11] = test: NOD2 signaling inhibitors in MDP-stimulated cells, cell-based, uHTS, luminescence (AID 2001); format: functional; conditions: Homo sapiens
HEK293 [12] = test: cells; format: functional, cell-based; conditions: Homo sapiens; remark: listed apart in the source
[13] = biological target: Nucleotide-binding oligomerization domain-containing protein 2 (Homo sapiens, UniProt Q9HC29); test: NOD2 signaling inhibitors, cell-based, luminescence, uHTS, HEK293 (AID 1566); format: functional
Chain of Nucleotide-binding oligomerization domain-containing protein 2 (Q9HC29 whole entry, the tested form may be a part): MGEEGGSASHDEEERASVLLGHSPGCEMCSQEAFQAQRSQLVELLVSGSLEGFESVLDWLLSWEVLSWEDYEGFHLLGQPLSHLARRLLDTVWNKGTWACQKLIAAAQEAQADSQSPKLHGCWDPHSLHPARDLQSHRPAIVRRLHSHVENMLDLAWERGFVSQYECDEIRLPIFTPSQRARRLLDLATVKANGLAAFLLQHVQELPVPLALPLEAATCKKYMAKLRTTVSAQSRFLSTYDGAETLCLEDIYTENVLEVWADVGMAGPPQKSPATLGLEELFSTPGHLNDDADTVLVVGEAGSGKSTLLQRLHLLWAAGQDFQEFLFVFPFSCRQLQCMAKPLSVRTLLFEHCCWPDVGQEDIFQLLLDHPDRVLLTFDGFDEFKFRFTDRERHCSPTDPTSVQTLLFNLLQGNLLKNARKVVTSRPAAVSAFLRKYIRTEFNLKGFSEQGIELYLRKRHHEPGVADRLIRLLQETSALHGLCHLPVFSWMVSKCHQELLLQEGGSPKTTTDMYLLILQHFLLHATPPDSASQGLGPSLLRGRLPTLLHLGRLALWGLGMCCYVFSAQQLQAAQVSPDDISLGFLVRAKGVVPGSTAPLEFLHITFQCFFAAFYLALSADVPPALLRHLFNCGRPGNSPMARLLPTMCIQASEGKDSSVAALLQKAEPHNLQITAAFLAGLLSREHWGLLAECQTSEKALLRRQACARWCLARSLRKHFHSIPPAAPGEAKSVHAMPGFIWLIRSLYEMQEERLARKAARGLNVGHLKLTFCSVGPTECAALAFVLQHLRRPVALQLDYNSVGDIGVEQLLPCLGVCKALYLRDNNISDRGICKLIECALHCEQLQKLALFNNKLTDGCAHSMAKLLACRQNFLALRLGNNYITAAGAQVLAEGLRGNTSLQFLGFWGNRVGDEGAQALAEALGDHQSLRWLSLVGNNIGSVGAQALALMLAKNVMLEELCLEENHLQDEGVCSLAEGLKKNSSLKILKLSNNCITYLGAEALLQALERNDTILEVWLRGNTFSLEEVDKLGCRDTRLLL

HEK293 [14] = test: cells; format: functional, cell-based; conditions: Homo sapiens; remark: listed apart in the source
HEK293 [15] = test: NOD1 signaling inhibitors, primary screen, cell-based, luminescence, uHTS (AID 1578); format: functional; conditions: Homo sapiens
Bcl-2-like protein 10 = Bcl-2-like protein 10 (Homo sapiens, UniProt Q9HD36); test: displacers of TR3 peptide from Bcl-B, primary screen, selectivity assay for Bfl-1 inhibitor project, biochemical, fluorescence polarization, FITC-TR3 peptide (AID 748);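 note: fluorescence polarization from a fluorescein-labelled TR3 peptide binding purified Bcl-B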
Chain of Bcl-2-like protein 10 (Q9HD36 whole entry): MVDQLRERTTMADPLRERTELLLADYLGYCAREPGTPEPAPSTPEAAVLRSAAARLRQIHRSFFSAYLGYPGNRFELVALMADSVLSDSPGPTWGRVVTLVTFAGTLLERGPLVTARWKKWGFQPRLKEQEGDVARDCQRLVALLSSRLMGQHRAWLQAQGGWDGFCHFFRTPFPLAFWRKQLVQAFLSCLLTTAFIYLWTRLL

[16] = biological target: Intestinal-type alkaline phosphatase (Homo sapiens, UniProt P09923); test: Dose Response confirmation of uHTS hits from a small molecule inhibitors of human intestinal alkaline phosphatase via a luminescent assay. [Related pubchem assays (depositor defined):AID2544, AID2574]; format: functional
Ion channel NompC = Ion channel NompC (Danio rerio, UniProt Q7T1G6); test: Dose response cell-based high-throughput screening assay for agonists of the transient receptor potential channel N1 (TRPN1). [Related pubchem assays (depositor defined):AID1424, AID1448]; format: functional
Mucolipin-3 = Mucolipin-3 (Homo sapiens, UniProt Q8TDD5); test: Fluorescence counterscreen assay for […] agonists: dose response cell-based high-throughput screening assay to identify agonists of the transient receptor potential channel ML3 (TRPML3). [Related pubchem assays: 1424, 1448 ]; format: functional
Chain of Mucolipin-3 (Q8TDD5 whole entry): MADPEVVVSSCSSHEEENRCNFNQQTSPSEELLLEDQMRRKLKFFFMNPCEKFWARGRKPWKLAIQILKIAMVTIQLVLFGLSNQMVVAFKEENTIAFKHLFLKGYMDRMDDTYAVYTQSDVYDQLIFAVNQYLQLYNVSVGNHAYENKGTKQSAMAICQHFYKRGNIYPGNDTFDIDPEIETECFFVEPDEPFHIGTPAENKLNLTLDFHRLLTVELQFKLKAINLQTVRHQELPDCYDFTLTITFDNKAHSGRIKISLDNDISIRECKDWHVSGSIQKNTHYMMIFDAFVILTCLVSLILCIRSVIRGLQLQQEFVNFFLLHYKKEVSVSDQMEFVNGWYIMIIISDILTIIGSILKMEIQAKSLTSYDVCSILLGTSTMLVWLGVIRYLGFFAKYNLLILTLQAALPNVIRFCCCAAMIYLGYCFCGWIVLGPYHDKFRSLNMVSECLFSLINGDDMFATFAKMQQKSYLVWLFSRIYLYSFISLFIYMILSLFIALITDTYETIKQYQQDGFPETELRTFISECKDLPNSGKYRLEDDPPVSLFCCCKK

[17] = biological target: DNA dC->dU-editing enzyme APOBEC-3G (Homo sapiens, UniProt Q9HC16); test: Dose Response confirmation of small molecule APOBEC3G DNA Deaminase Inhibitors via a fluorescence-based single-stranded DNA deaminase assay. [Related pubchem assays (depositor defined):AID493012, AID493028]; format: functional
[18] = Luminescence Cell-Based Dose Response HTS to Identify Activators of Luciferase Translation or Activity in H4 […] Cells. [Related pubchem assays: 1829 (Project Summary), 1814 (Primary HTS)]; format: functional
[19] = Luminescence Cell-Based Dose Confirmation HTS to Identify Activators of 5'UTR Stem-Loop Driven Alpha-Synuclein mRNA Translation in H4 Neuroglioblastoma Cells. [Related pubchem assays: 1829 (Project Summary), 1814 (Primary HTS)]; format: functional
[20] = biological target: G-protein coupled receptor 55 (Homo sapiens, UniProt Q9Y2T6); test: GPR55 agonists via beta-arrestin recruitment, primary screen, imaging, U2OS cells, beta-arrestin-GFP redistribution (AID 1961); format: functional
Chain of G-protein coupled receptor 55 (Q9Y2T6 whole entry): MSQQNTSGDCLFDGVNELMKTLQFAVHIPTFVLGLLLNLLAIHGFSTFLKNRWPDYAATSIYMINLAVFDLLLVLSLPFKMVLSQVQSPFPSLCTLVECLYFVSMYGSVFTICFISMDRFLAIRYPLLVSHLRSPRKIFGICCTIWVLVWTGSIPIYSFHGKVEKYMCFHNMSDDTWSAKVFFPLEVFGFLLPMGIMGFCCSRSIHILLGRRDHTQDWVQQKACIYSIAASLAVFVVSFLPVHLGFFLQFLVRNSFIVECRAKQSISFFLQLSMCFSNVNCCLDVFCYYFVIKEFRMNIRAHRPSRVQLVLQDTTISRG

H4 = test: Luminescence Cell-Based Dose Response HTS to Identify Activators of 5'UTR Stem-Loop Driven Prion Protein mRNA Translation in H4 Neuroglioblastoma Cells. [Related pubchem assays: 1829 (Project Summary), 1814 (Primary HTS)]; format: functional; conditions: Homo sapiens

In the case of `C[N+](C)(C)c1ccc(/C=N/Nc2nc(Cl)c(C#N)c(Cl)c2Cl)cc1`, the EC50 (Streptokinase A) was > 150 µM (not active), the EC50 [1] was > 150 µM (not active) and the EC50 (Streptococcus) was > 150 µM (not active). The IC50 [2] was > 64 µM (inactive).
In the case of `O=[N+]([O-])c1ccc(O)c(/C=N/Nc2ccccc2Cl)c1`, the “Absolute IC50 (CHOP)” value [3] was 10 µM and the “Absolute IC50 (XBP1)” value (X-box-binding protein 1) was 10 µM.
For `C[C@H](NC(=O)c1ccccc1Cl)C(=O)OC(C(=O)Nc1cc(C(F)(F)F)ccc1Cl)c1ccccc1` (some centres not stated), the EC50 [4] was 4.07 µM (active).
For `CC(C)(C)c1csc(NC(=O)Cn2c(=O)oc3ccccc32)n1`, the EC50 [4] was 1.5 µM (active) and the AC50 [5] was > 100 µM (inactive).
In the case of `COc1ccc2[nH]c(SCC(=O)c3ccc(O)c(O)c3)nc2c1`, the IC50 [6] was 19.3 µM (active), the IC50 [7] was 6.17 µM (active) and the IC50 [8] was > 100 µM (not active).
For `c1ccc(-c2cc3c(ccc4nonc43)[nH]2)cc1`, the EC50 [9] was > 49.7 µM (inactive) and the EC50 (Wee1-like protein kinase) was > 49.7 µM (inactive).
For `COc1cccc(S(=O)(=O)Nc2cccnc2)c1`, the IC50 [6] was > 100 µM (inactive) and the IC50 [8] was > 100 µM (not active).
For `O=C(/C=C\c1ccco1)Nc1nc(-c2ccc3ccccc3c2)cs1`, the EC50 (Streptokinase A) was > 150 µM (not active), the IC50 (Protein skinhead-1) was > 100 µM (inactive) and the EC50 [1] was 7.52 µM (active). The EC50 (Streptococcus) was 73.7 µM (active), the IC50 (HEK293 [10]) was > 20 µM (inactive) and the IC50 (HEK293 [11]) was 3.88 µM (inactive). For the same compound, the IC50 (HEK293 [12]) was 7.24 µM (active), the EC50 [13] was > 20 µM (inactive) and the IC50 (HEK293 [14]) was 3.56 µM (active). For the same compound, the EC50 (HEK293 [15]) was > 20 µM (inactive).
With `Cn1c(=O)n(C)c2cc(S(=O)(=O)Nc3ccccc3O)ccc21` the IC50 (Bcl-2-like protein 10) was > 100 µM (inactive).
With `N#Cc1c(-c2ccccc2)nc(N2CCOCC2)[nH]c1=O` the IC50 [16] was > 100 µM (inactive).
In the case of `CN(CC(=O)Nc1c(Cl)cccc1Cl)C(=O)CCCN1C(=O)c2ccccc2C1=O`, the IC50 (Bcl-2-like protein 10) was > 100 µM (inactive).
In the case of `CCCCCCSc1nsc(NC(=O)CCC)n1`, the “Absolute IC50 (XBP1)” value (X-box-binding protein 1) was 10 µM.
In the case of `Cn1c(=O)cc(OCCCC(=O)Nc2cccc(Cl)c2)c2ccccc21`, the EC50 [9] was > 49.7 µM (inactive) and the EC50 (Wee1-like protein kinase) was > 49.7 µM (inactive).
For `COc1ccccc1N(CC(=O)NC(C)(C)C)S(=O)(=O)c1cccs1`, the EC50 (Ion channel NompC) was > 29.9 µM (inactive) and the EC50 (Mucolipin-3) was > 29.9 µM (not active).
In the case of `Cc1ccc(-n2c(N)c(C(N)=O)sc2=S)cc1`, the IC50 [2] was > 64 µM (inactive) and the IC50 [17] was 55.1 µM (active).
With `O=C(CN1C(=O)c2cccnc2Oc2ccc(Cl)cc21)NCCCc1ccccc1` the IC50 (HEK293 [10]) was > 20 µM (inactive), the IC50 (HEK293 [11]) was > 20 µM (inactive) and the IC50 (HEK293 [12]) was > 20 µM (inactive). For the same compound, the EC50 [13] was > 20 µM (inactive), the IC50 (HEK293 [14]) was > 20 µM (inactive) and the EC50 (HEK293 [15]) was > 20 µM (inactive).
In the case of `COc1ccc(Cc2nc3ccccc3n2CC(=O)N/N=C/c2ccc(C)cc2O)cc1OC`, the “Absolute IC50 (CHOP)” value [3] was 10 µM.
With `CC1=NN(c2ccc(C(=O)O)cc2)C(=O)/C1=C/c1ccc(-c2ccccc2F)o1` the EC50 [18] was > 120 µM (not active), the EC50 [19] was > 120 µM (not active) and the EC50 [20] was 21.3 µM (inactive). For the same compound, the EC50 (H4) was > 120 µM (not active).
